{"source": "ChEMBL document CHEMBL1135057", "about": "“A combinatorial library of indinavir analogues and its in vitro and in vivo studies” (Bioorg Med Chem Lett, 2002)", "key": {"[1]": {"assay": "Tested for the pharmacokinetic data, maximum concentration (Cmax) in dog", "type": "ADME, organism-based, Canis lupus familiaris", "details": "in vivo"}, "[2]": {"assay": "Tested for the pharmacokinetic data, area under the curve of concentration versus time in dog", "type": "ADME, organism-based, Canis lupus familiaris", "details": "in vivo"}, "[3]": {"assay": "Tested for the pharmacokinetic data, time required to reach Cmax (Tmax) in dog at dosage of 10 mpk", "type": "ADME, organism-based, Canis lupus familiaris", "details": "in vivo, 10 mg/kg"}, "Canis familiaris": {"species": "Canis familiaris", "assay": "Tested for the pharmacokinetic data, time required to reach Cmax (Tmax) in dog", "type": "ADME, organism-based, Canis lupus familiaris", "details": "in vivo"}, "[4]": {"assay": "Tested for the pharmacokinetic data, maximum concentration (Cmax) in dog at dosage of 10 mpk", "type": "ADME, organism-based, Canis lupus familiaris", "set-up": "dose 10 mpk", "details": "in vivo, 10 mg/kg"}, "[5]": {"assay": "Tested for the half life period in dog at dosage of 10 mpk", "type": "ADME, organism-based, Canis lupus familiaris", "details": "in vivo, 10 mg/kg"}, "[6]": {"assay": "Tested for the half life period in dog", "type": "ADME, organism-based, Canis lupus familiaris", "details": "in vivo"}, "[7]": {"assay": "Tested for the pharmacokinetic data, area under the curve of concentration versus time in dog at dosage of 10 mpk", "type": "ADME, organism-based, Canis lupus familiaris", "details": "in vivo, 10 mg/kg"}, "[8]": {"tested_on": "Human immunodeficiency virus 1", "assay": "Inhibition of the spread of viral infection in MT-4 human T-lymphoid cells infected by IIIb isolate", "type": "functional", "details": "Human immunodeficiency virus 1, T-lymphoid; read-out: CIC95"}, "[9]": {"target": "T1, Human immunodeficiency virus type 1 protease (Human immunodeficiency virus 1, UniProt Q72874)", "assay": "Tested in vitro for the ability to inhibit cleavage of a substrate by the wild type HIV-1 protease"}, "[10]": {"target": "T1, Human immunodeficiency virus type 1 protease", "assay": "Tested in vitro for potential potency against PI-resistant HIV virus by A-44 mutant enzyme variant"}, "[11]": {"target": "T1, Human immunodeficiency virus type 1 protease", "assay": "In vitro inhibitory activity against mutant HIV-1 (A-44)protease"}, "[12]": {"target": "T1, Human immunodeficiency virus type 1 protease", "assay": "In vitro inhibitory activity against wild type HIV-1 protease"}}}
{"smiles": "C[C@@H]1CC[C@@H](O)C1NC(=O)[C@H](CC1CCCCC1)C[C@H](O)CN1CCN(Cc2cccnc2)C[C@H]1C(=O)NC(C)(C)C", "note": "(single isomer, unassigned)", "values": [{"measurement": "Cmax", "setting": "[1]", "value": 483, "unit": "nM"}, {"measurement": "AUC", "setting": "[2]", "value": 0.504, "unit": "µM·h"}, {"measurement": "Tmax", "setting": "[3]", "value": 25, "unit": "min"}, {"measurement": "T max", "setting": "Canis familiaris", "value": 40, "unit": "min"}, {"measurement": "Cmax", "setting": "[4]", "value": 3760, "unit": "nM"}, {"measurement": "half-life", "setting": "[5]", "value": 49, "unit": "min"}, {"measurement": "half-life", "setting": "[6]", "value": 42.5, "unit": "min"}, {"measurement": "AUC", "setting": "[7]", "value": 3.83, "unit": "µM·h"}]}
{"smiles": "Cn1nc(C(F)(F)F)cc1-c1ccc(CN2CCN(C[C@@H](O)C[C@@H](Cc3ccccc3)C(=O)NC3c4ccccc4C[C@H]3O)[C@H](C(=O)NC(C)(C)C)C2)s1", "note": "(single isomer, unassigned)", "values": [{"measurement": "IC95", "setting": "[8]", "value": 6, "unit": "nM"}, {"measurement": "IC50", "setting": "[9]", "value": "< 0.1", "unit": "nM"}, {"measurement": "IC50", "setting": "[10]", "value": "< 0.6", "unit": "nM"}]}
{"smiles": "CC(C)(C)NC(=O)[C@@H]1CN(Cc2ncc(-c3ccccc3)s2)CCN1C[C@@H](O)C[C@@H](Cc1ccccc1)C(=O)N[C@H]1c2ccccc2C[C@H]1O", "values": [{"measurement": "IC95", "setting": "[8]", "value": 25, "unit": "nM"}, {"measurement": "IC50", "setting": "[9]", "value": "< 0.1", "unit": "nM"}, {"measurement": "IC50", "setting": "[10]", "value": "< 0.6", "unit": "nM"}]}
{"smiles": "CN(C)c1ccc2cc(S(=O)(=O)N3CCN(C[C@@H](O)C[C@@H](Cc4ccccc4)C(=O)N[C@H]4c5ccccc5C[C@H]4O)[C@H](C(=O)NC(C)(C)C)C3)ccc2n1", "values": [{"measurement": "IC95", "setting": "[8]", "value": 12.5, "unit": "nM"}, {"measurement": "IC50", "setting": "[9]", "value": "< 0.1", "unit": "nM"}, {"measurement": "IC50", "setting": "[10]", "value": "< 0.6", "unit": "nM"}]}
{"smiles": "C[C@@H]1CC[C@@H](O)C1NC(=O)[C@H](CC1CC1)C[C@H](O)CN1CCN(Cc2cccnc2)C[C@H]1C(=O)NC(C)(C)C", "note": "(single isomer, unassigned)", "values": [{"measurement": "Cmax", "setting": "[1]", "value": 996, "unit": "nM"}, {"measurement": "AUC", "setting": "[2]", "value": 0.839, "unit": "µM·h"}, {"measurement": "Tmax", "setting": "[3]", "value": 45, "unit": "min"}, {"measurement": "T max", "setting": "Canis familiaris", "value": 40, "unit": "min"}, {"measurement": "Cmax", "setting": "[4]", "value": 6620, "unit": "nM"}, {"measurement": "half-life", "setting": "[5]", "value": 41, "unit": "min"}, {"measurement": "half-life", "setting": "[6]", "value": 19, "unit": "min"}, {"measurement": "AUC", "setting": "[7]", "value": 5.28, "unit": "µM·h"}]}
{"smiles": "CC(C)(C)NC(=O)[C@@H]1CN(Cc2ncc(-c3ccccc3)s2)CCN1C[C@@H](O)C[C@@H](Cc1ccccc1)C(=O)N[C@@H]1c2ccccc2C[C@H]1O", "values": [{"measurement": "IC50", "setting": "[11]", "value": 2, "unit": "nM"}, {"measurement": "IC50", "setting": "[12]", "value": 0.26, "unit": "nM"}, {"measurement": "IC95", "setting": "[8]", "value": 50, "unit": "nM"}]}
{"smiles": "Cn1nc(C(F)(F)F)cc1-c1ccc(CN2CCN(C[C@@H](O)C[C@@H](Cc3ccccc3)C(=O)N[C@@H]3c4ccccc4C[C@H]3O)[C@H](C(=O)NC(C)(C)C)C2)s1", "values": [{"measurement": "IC50", "setting": "[11]", "value": 0.6, "unit": "nM"}, {"measurement": "IC50", "setting": "[12]", "value": 0.13, "unit": "nM"}, {"measurement": "IC95", "setting": "[8]", "value": 25, "unit": "nM"}]}
{"smiles": "CC(C)(C)NC(=O)[C@@H]1CN(Cc2cc3cc(F)ccc3o2)CCN1C[C@@H](O)C[C@@H](Cc1ccccc1)C(=O)N[C@@H]1c2ccccc2C[C@H]1O", "values": [{"measurement": "IC50", "setting": "[11]", "value": 46, "unit": "nM"}, {"measurement": "IC50", "setting": "[12]", "value": 0.94, "unit": "nM"}, {"measurement": "IC95", "setting": "[8]", "value": 200, "unit": "nM"}]}
{"smiles": "CC(C)(C)NC(=O)[C@@H]1CN(Cc2cccnc2)CCN1C[C@@H](O)C[C@@H](CC1CCCCC1)C(=O)NC1c2cccc(Cl)c2C[C@H]1O", "note": "(single isomer, unassigned)", "values": [{"measurement": "Cmax", "setting": "[1]", "value": 182, "unit": "nM"}, {"measurement": "AUC", "setting": "[2]", "value": 0.235, "unit": "µM·h"}, {"measurement": "Tmax", "setting": "[3]", "value": 35, "unit": "min"}, {"measurement": "T max", "setting": "Canis familiaris", "value": 40, "unit": "min"}, {"measurement": "Cmax", "setting": "[4]", "value": 360, "unit": "nM"}, {"measurement": "half-life", "setting": "[5]", "value": 53, "unit": "min"}, {"measurement": "half-life", "setting": "[6]", "value": 81, "unit": "min"}, {"measurement": "AUC", "setting": "[7]", "value": 0.48, "unit": "µM·h"}]}
